Experiments:
[1] = test system: wheat; test: Test C preemergence; assay type: in vivo, Triticum aestivum; details: for Plant response rating, Wheat: Preemergence; for Wheat plant response rating: preemergence
Procedure, shortened: (§1)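 Greenhouse herbicide screen, 10-day duration. Test chemicals in solvent/surfactant blend were sprayed onto soil at sowing (pre) or onto 2–10 cm seedlings at one to two leaves (post); injury scored visually against controls, 0 no effect to 100 complete control.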

[2] = test system: ragweed; test: Test C preemergence; assay type: in vivo, Ambrosia artemisiifolia; details: for Plant response rating, Ragweed: Preemergence; for Ragweed plant response rating: preemergence
Procedure, shortened: as §1

[3] = test system: wheat; test: Test C postemergence; assay type: in vivo, Triticum aestivum; details: 10 days
Procedure, shortened: as §1

[4] = test system: kochia; test: Test C preemergence; assay type: in vivo, Bassia scoparia; details: for Plant response rating, Kochia: Preemergence; for Kochia plant response rating: preemergence
Procedure, shortened: as §1

[5] = test system: barnyardgrass; test: Test C preemergence; assay type: in vivo, Echinochloa crusgalli; details: for Plant response rating, Barnyardgrass: Preemergence; for Barnyardgrass plant response rating: preemergence
Procedure, shortened: as §1

[6] = test system: ryegrass, Italian; test: Test C postemergence; assay type: in vivo, Lolium multiflorum; details: 10 days
Procedure, shortened: as §1

[7] = test system: corn; test: Test C postemergence; assay type: in vivo, Zea mays; details: 10 days
Procedure, shortened: as §1

[8] = test system: blackgrass; test: Test C postemergence; assay type: in vivo, Alopecurus myosuroides; details: 10 days
Procedure, shortened: as §1

[9] = test system: soybean; test: Test C postemergence; assay type: in vivo, Glycine max; details: 10 days
Procedure, shortened: as §1

[10] = test system: barnyardgrass; test: Test C postemergence; assay type: in vivo, Echinochloa crusgalli; details: 10 days
Procedure, shortened: as §1

[11] = test system: rice; test: Test D flooded paddy test; assay type: in vivo, Oryza sativa; details: 250 g ai/ha, applied to paddy water, visual rating after 13 to 14 days, scale 0 to 100 (0 no effect, 100 complete control)
Procedure, shortened: (§2)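 Compounds go straight into paddy water over 2-leaf plants in pots flooded to 3 cm. Greenhouse holding lasts 13 to 14 days. Injury is scored by eye against controls from 0 (none) to 100 (complete control).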

[12] = test system: kochia; test: Test C postemergence; assay type: in vivo, Bassia scoparia; details: 10 days
Procedure, shortened: as §1

[13] = test system: oat, wild; test: Test C postemergence; assay type: in vivo, Avena fatua; details: 10 days
Procedure, shortened: as §1

[14] = test system: horseweed; test: Test C postemergence; assay type: in vivo, Erigeron canadensis; details: 10 days
Procedure, shortened: as §1

[15] = test system: blackgrass; test: Test C preemergence; assay type: in vivo, Alopecurus myosuroides; details: for Plant response rating, Blackgrass: Preemergence; for Blackgrass plant response rating: preemergence
Procedure, shortened: as §1

[16] = test system: galium; test: Test C postemergence; assay type: in vivo, Galium aparine; details: 10 days
Procedure, shortened: as §1

[17] = test system: ducksalad; test: Test D flooded paddy test; assay type: in vivo, Heteranthera limosa; details: 250 g ai/ha, applied to paddy water, visual rating after 13 to 14 days, scale 0 to 100 (0 no effect, 100 complete control)
Procedure, shortened: as §2

[18] = test system: green foxtail; test: Test C postemergence; assay type: in vivo, Setaria viridis; details: 10 days
Procedure, shortened: as §1

[19] = test system: ryegrass, Italian; test: Test C preemergence; assay type: in vivo, Lolium multiflorum; details: for Plant response rating, Ryegrass, Italian: Preemergence; for Ryegrass, Italian plant response rating: preemergence
Procedure, shortened: as §1

[20] = test system: pigweed, palmer; test: Test C postemergence; assay type: in vivo, Amaranthus palmeri; details: 10 days
Procedure, shortened: as §1

[21] = test system: barnyardgrass; test: Test D flooded paddy test; assay type: in vivo, Echinochloa crus-galli; details: 250 g ai/ha, applied to paddy water, visual rating after 13 to 14 days, scale 0 to 100 (0 no effect, 100 complete control)
Procedure, shortened: as §2

[22] = test system: soybean; test: Test C preemergence; assay type: in vivo, Glycine max; details: for Plant response rating, Soybean: Preemergence; for Soybean plant response rating: preemergence
Procedure, shortened: as §1

[23] = test system: oat, wild; test: Test C preemergence; assay type: in vivo, Avena fatua; details: for Plant response rating, Oat, Wild: Preemergence; for Oat, Wild plant response rating: preemergence
Procedure, shortened: as §1

[24] = test system: corn; test: Test C preemergence; assay type: in vivo, Zea mays; details: 0 to 100 scale (0 no effect, 100 complete control); for Plant response rating, Corn: Preemergence, visual rating after 10 days; for Corn plant response rating: preemergence
Procedure, shortened: as §1

[25] = test system: sedge, umbrella; test: Test D flooded paddy test; assay type: in vivo, Cyperus difformis; details: 250 g ai/ha, applied to paddy water, visual rating after 13 to 14 days, scale 0 to 100 (0 no effect, 100 complete control)
Procedure, shortened: as §2

[26] = test system: ragweed; test: Test C postemergence; assay type: in vivo, Ambrosia artemisiifolia; details: 10 days
Procedure, shortened: as §1

[27] = test system: pigweed, palmer; test: Test C preemergence; assay type: in vivo, Amaranthus palmeri; details: for Plant response rating, Pigweed, Palmer: Preemergence; for Pigweed, Palmer plant response rating: preemergence
Procedure, shortened: as §1

[28] = test system: green foxtail; test: Test C preemergence; assay type: in vivo, Setaria viridis; details: for Plant response rating, Foxtail, Green: Preemergence; for Foxtail, Green plant response rating: preemergence
Procedure, shortened: as §1

[29] = 500 g ai/ha, visual rating after 10 days, 0 to 100 scale (0 no effect, 100 complete control)
[30] = Test C, 125 g ai/ha, 0 to 100 scale (0 no effect, 100 complete control)
[31] = 125 g ai/ha, postemergence, 0 to 100 scale, 0 no effect, 100 complete control
[32] = Postemergence, 500 g ai/ha, visual 0 to 100 scale (0 no effect, 100 complete control)
[33] = 500 g ai/ha, 0 to 100 scale (0 no effect, 100 complete control)
[34] = 125 g ai/ha, 0 to 100 scale, 0 no effect, 100 complete control
[35] = 500 g ai/ha, postemergence, 0 to 100 scale (0 no effect, 100 complete control)
[36] = Postemergence, 125 g ai/ha, 0 to 100 scale (0 no effect, 100 complete control)

CC(C)=C(C)c1ncn(-c2cccc(C(=O)N3C[C@H](C)Oc4c(C)cccc43)c2)n1 [Compound 262]
Plant response rating, Wheat [1, 29]: 70
Wheat plant response rating [1, 30]: 20
Plant response rating, Ragweed [2, 29]: 60
Ragweed plant response rating [2, 30]: 0
Plant response rating, Wheat [3, 31]: 30
Plant response rating, Wheat [3, 32]: 50
Plant response rating, Kochia [4, 29]: 80
Kochia plant response rating [4, 30]: 40
Plant response rating, Barnyardgrass [5, 29]: 90
Barnyardgrass plant response rating [5, 30]: 60
Plant response rating, Ryegrass, Italian [6, 31]: 80
Plant response rating, Ryegrass, Italian [6, 32]: 90
Plant response rating, Corn [7, 31]: 60
Plant response rating, Corn [7, 32]: 80
Plant response rating, Blackgrass [8, 32]: 90
Plant response rating, Soybean [9, 31]: 100
Plant response rating, Soybean [9, 32]: 100
Plant response rating, Barnyardgrass [10, 31]: 60
Plant response rating, Barnyardgrass [10, 32]: 90
Plant response rating, Rice (Flood) [11]: 0
Plant response rating, Kochia [12, 31]: 50
Plant response rating, Kochia [12, 32]: 90
Plant response rating, Oat, Wild [13, 31]: 60
Plant response rating, Oat, Wild [13, 32]: 80
Plant response rating, Horseweed [14, 31]: 10
Plant response rating, Horseweed [14, 32]: 10
Plant response rating, Blackgrass [15, 29]: 90
Blackgrass plant response rating [15, 30]: 60
Plant response rating, Galium [16, 31]: 100
Plant response rating, Galium [16, 32]: 100
Plant response rating, Ducksalad (Flood) [17]: 0
Plant response rating, Foxtail, Green [18, 31]: 70
Plant response rating, Foxtail, Green [18, 32]: 90
Plant response rating, Ryegrass, Italian [19, 29]: 90
Ryegrass, Italian plant response rating [19, 30]: 70
Plant response rating, Pigweed, Palmer [20, 31]: 70
Plant response rating, Pigweed, Palmer [20, 32]: 90
Plant response rating, Barnyardgrass (Flood) [21]: 0
Plant response rating, Soybean [22, 29]: 70
Soybean plant response rating [22, 30]: 30
Plant response rating, Oat, Wild [23, 29]: 80
Oat, Wild plant response rating [23, 30]: 50
Plant response rating, Corn ([24]; 500 g ai/ha): 40
Corn plant response rating ([24]; Test C, 125 g ai/ha): 40
Plant response rating, Sedge, Umbrella (Flood) [25]: 0
Plant response rating, Ragweed [26, 31]: 40
Plant response rating, Ragweed [26, 32]: 70
Plant response rating, Pigweed, Palmer [27, 29]: 90
Pigweed, Palmer plant response rating [27, 30]: 70
Plant response rating, Foxtail, Green [28, 29]: 100
Foxtail, Green plant response rating [28, 30]: 100

COc1ccc(-n2cncn2)cc1C(=O)N1C[C@H](C)Oc2ccccc21 [Compound 228]
Plant response rating, Wheat [1, 29]: 30
Wheat plant response rating [1, 30]: 20
Plant response rating, Ragweed [2, 29]: 50
Ragweed plant response rating [2, 30]: 40
Plant response rating, Wheat [3, 31]: 50
Plant response rating, Wheat [3, 32]: 90
Plant response rating, Kochia [4, 29]: 60
Kochia plant response rating [4, 30]: 0
Plant response rating, Barnyardgrass [5, 29]: 100
Barnyardgrass plant response rating [5, 30]: 90
Plant response rating, Ryegrass, Italian [6, 31]: 100
Plant response rating, Ryegrass, Italian [6, 32]: 100
Plant response rating, Corn [7, 31]: 40
Plant response rating, Corn [7, 32]: 80
Plant response rating, Blackgrass [8, 31]: 80
Plant response rating, Blackgrass [8, 32]: 90
Plant response rating, Soybean [9, 31]: 100
Plant response rating, Soybean [9, 32]: 100
Plant response rating, Barnyardgrass [10, 31]: 60
Plant response rating, Barnyardgrass [10, 32]: 90
Plant response rating, Rice (Flood) [11]: 25
Plant response rating, Kochia [12, 31]: 50
Plant response rating, Kochia [12, 32]: 70
Plant response rating, Oat, Wild [13, 31]: 30
Plant response rating, Oat, Wild [13, 32]: 80
Plant response rating, Horseweed [14, 31]: 10
Plant response rating, Horseweed [14, 32]: 30
Plant response rating, Blackgrass [15, 29]: 90
Blackgrass plant response rating [15, 30]: 80
Plant response rating, Galium [16, 31]: 100
Plant response rating, Galium [16, 32]: 100
Plant response rating, Ducksalad (Flood) [17]: 80
Plant response rating, Foxtail, Green [18, 31]: 30
Plant response rating, Foxtail, Green [18, 32]: 90
Plant response rating, Ryegrass, Italian [19, 29]: 90
Ryegrass, Italian plant response rating [19, 30]: 90
Plant response rating, Pigweed, Palmer [20, 31]: 70
Plant response rating, Pigweed, Palmer [20, 32]: 90
Plant response rating, Barnyardgrass (Flood) [21]: 15
Plant response rating, Soybean [22, 29]: 90
Soybean plant response rating [22, 30]: 70
Plant response rating, Oat, Wild [23, 29]: 90
Oat, Wild plant response rating [23, 30]: 40
Plant response rating, Corn ([24]; 500 g ai/ha): 60
Corn plant response rating ([24]; Test C, 125 g ai/ha): 10
Plant response rating, Sedge, Umbrella (Flood) [25]: 95
Plant response rating, Ragweed [26, 31]: 10
Plant response rating, Ragweed [26, 32]: 30
Plant response rating, Pigweed, Palmer [27, 29]: 100
Pigweed, Palmer plant response rating [27, 30]: 100
Plant response rating, Foxtail, Green [28, 29]: 100
Foxtail, Green plant response rating [28, 30]: 100

Cc1ncn(-c2ccc(F)c(C(=S)N3C[C@H](C)Oc4c(C)cccc43)c2)n1 [Compound 362]
Wheat plant response rating [1, 33]: 40
Plant response rating, Wheat [1, 34]: 10
Ragweed plant response rating [2, 33]: 60
Plant response rating, Ragweed [2, 34]: 20
Plant response rating, Wheat [3, 35]: 60
Plant response rating, Wheat [3, 36]: 40
Kochia plant response rating [4, 33]: 80
Plant response rating, Kochia [4, 34]: 70
Barnyardgrass plant response rating [5, 33]: 100
Plant response rating, Barnyardgrass [5, 34]: 80
Plant response rating, Ryegrass, Italian [6, 35]: 90
Plant response rating, Ryegrass, Italian [6, 36]: 80
Plant response rating, Corn [7, 35]: 40
Plant response rating, Corn [7, 36]: 30
Plant response rating, Blackgrass [8, 35]: 90
Plant response rating, Blackgrass [8, 36]: 70
Plant response rating, Soybean [9, 35]: 100
Plant response rating, Soybean [9, 36]: 100
Plant response rating, Barnyardgrass [10, 35]: 90
Plant response rating, Barnyardgrass [10, 36]: 60
Plant response rating, Rice (Flood) [11]: 25
Plant response rating, Kochia [12, 35]: 90
Plant response rating, Kochia [12, 36]: 80
Plant response rating, Oat, Wild [13, 35]: 60
Plant response rating, Oat, Wild [13, 36]: 30
Plant response rating, Horseweed [14, 35]: 10
Plant response rating, Horseweed [14, 36]: 0
Blackgrass plant response rating [15, 33]: 80
Plant response rating, Blackgrass [15, 34]: 50
Plant response rating, Galium [16, 35]: 100
Plant response rating, Galium [16, 36]: 100
Plant response rating, Ducksalad (Flood) [17]: 50
Plant response rating, Foxtail, Green [18, 35]: 90
Plant response rating, Foxtail, Green [18, 36]: 70
Ryegrass, Italian plant response rating [19, 33]: 90
Plant response rating, Ryegrass, Italian [19, 34]: 80
Plant response rating, Pigweed, Palmer [20, 35]: 80
Plant response rating, Pigweed, Palmer [20, 36]: 30
Plant response rating, Barnyardgrass (Flood) [21]: 35
Soybean plant response rating [22, 33]: 70
Plant response rating, Soybean [22, 34]: 50
Oat, Wild plant response rating [23, 33]: 70
Plant response rating, Oat, Wild [23, 34]: 0
Corn plant response rating ([24]; 500 g ai/ha): 20
Plant response rating, Sedge, Umbrella (Flood) [25]: 95
Plant response rating, Ragweed [26, 35]: 60
Plant response rating, Ragweed [26, 36]: 50
Pigweed, Palmer plant response rating [27, 33]: 100
Plant response rating, Pigweed, Palmer [27, 34]: 90
Foxtail, Green plant response rating [28, 33]: 100
Plant response rating, Foxtail, Green [28, 34]: 100
